Experimental findings from patent US12319664B2, “Herbicidally active 3-phenylisoxazoline-5-carboxamides of cyclopentenylcarboxylic acid derivatives” (Bayer Aktiengesellschaft, priority 2018, dated 2025) are described below.

One assay deals with ALOMY. The experiment in a line: Post-emergence herbicidal action against ALOMY. The note with it: application rate 80 g/ha, rated visually after about 3 weeks. It is filed as in vivo, Alopecurus myosuroides. How it is done: (§1) [table] 2. Post-emergence herbicidal action against harmful plants and crop plant compatibility Seeds of monocotyledonous and dicotyledonous weeds and crop plants are placed in sandy loam in plastic or wood-fibre pots, covered with soil and cultivated in a greenhouse under controlled growth conditions. 2 to 3 weeks after sowing, the test plants are treated at the one-leaf stage. The compounds of the invention, formulated in the form of wettable powders (WP) or as emulsion concentrates (EC), are then sprayed onto the green parts of the plants as aqueous suspension or emulsion with addition of 0.5% additive at a water application rate of 600 l/ha (converted). After the test plants have been kept in the greenhouse under optimum growth conditions for about 3 weeks, the activity of the preparations is rated visually in comparison to untreated controls. For example, 100% activity=the plants have died, 0% activity=like control plants.

In the next assay the test system is ABUTH. The experiment in a line: Post-emergence herbicidal action against ABUTH. The note with it: application rate 80 g/ha, rated visually about 3 weeks after treatment. Format: in vivo, Abutilon theophrasti. How it is done:
as §1

The subject of another assay is AVEFA. The experiment in a line: Post-emergence herbicidal action against AVEFA. Format: in vivo, Avena fatua. The note with it: application rate 80 g/ha, rated visually after about 3 weeks. As to the method:
as §1

The next assay relates to POLCO. The assay is described as follows: Post-emergence herbicidal action against POLCO. Format: in vivo, Polygonum convolvulus. The note with it: application rate 80 g/ha, rated visually about 3 weeks after treatment. As to the method:
as §1

The next assay deals with STEME. The experiment in a line: Post-emergence herbicidal action against STEME. It is filed as in vivo, Stellaria media. As to conditions: application rate 80 g/ha, rated visually about 3 weeks after treatment. As to the method: as §1
A further assay has as its system SETVI. The experiment in a line: Post-emergence herbicidal action against SETVI. Format: in vivo, Setaria viridis. The note with it: application rate 80 g/ha, rated visually after about 3 weeks. As to the method: as §1
Another assay deals with AMARE. The experiment in a line: Post-emergence herbicidal action against AMARE. As to conditions: application rate 80 g/ha, rated visually about 3 weeks after treatment. It is filed as in vivo, Amaranthus retroflexus. As to the method:
as §1

Another assay deals with VERPE. The experiment in a line: Post-emergence herbicidal action against VERPE. The note with it: application rate 80 g/ha. Format: in vivo, Veronica persica. How it is done:
as §1

A further assay deals with ECHCG. The experiment in a line: Post-emergence herbicidal action against ECHCG. Format: in vivo, Echinochloa crus-galli. As to conditions: application rate 80 g/ha, rated visually after about 3 weeks. As to the method: as §1
The subject of a further assay is LOLRI. The assay is described as follows: Post-emergence herbicidal action against LOLRI. Format: in vivo, Lolium rigidum. The note with it: application rate 80 g/ha, rated visually after about 3 weeks. As to the method: as §1
The subject of another assay is HORMU. The experiment in a line: Post-emergence herbicidal action against HORMU. Format: in vivo, Hordeum murinum. The note with it: application rate 80 g/ha. How it is done: as §1
In the next assay the test system is PHBPU. The experiment in a line: Post-emergence herbicidal action against PHBPU. It is filed as in vivo, Pharbitis purpurea. The note with it: application rate 80 g/ha, rated visually about 3 weeks after treatment. How it is done:
as §1

For `CCOC(=O)C1C=CC(NC(=O)C2(C)CC(c3cccc(C#N)c3)=NO2)C1` (mixture of isomers) [Example I-069], in the assay on ALOMY, the “Herbicidal action against [%] ALOMY” value is 90%. Moreover, the “Herbicidal action against [%] ABUTH” value in the assay with ABUTH turned out to be 80%. For the same compound, in the assay with AVEFA, the “Herbicidal action against [%] AVEFA” value amounted to 90%. Further, the “Herbicidal action against [%] POLCO” value in the assay with POLCO worked out at 80%. The “Herbicidal action against [%] STEME” value in the assay on STEME came to 80%. Also, the “Herbicidal action against [%] SETVI” value in the assay on SETVI stood at 80%. The “Herbicidal action against [%] AMARE” value with AMARE came to 80%. Besides, the “Herbicidal action against [%] VERPE” value in the assay on VERPE amounted to 80%. For the same compound, the “Herbicidal action against [%] ECHCG” value in the assay on ECHCG amounted to 90%. For the same compound, in the assay with LOLRI, the “Herbicidal action against [%] LOLRI” value turned out to be 90%. The “Herbicidal action against [%] HORMU” value in the assay on HORMU was found to be 90%.

On to `C=CC1(C(=O)N[C@H]2C=C[C@H](C(=O)NC(C)(C)C#N)C2)CC(c2cc(F)cc(F)c2)=NO1` (stereo partly shown) [II-19], for which the “Herbicidal action against [%] PHBPU” value in the assay with PHBPU is reported as 90%.

As to `C=CC1(C(=O)NC2C=CC(C(=O)OC)C2)CC(c2cc(F)cc(F)c2)=NO1` (mixture of isomers) [Example I-035], in the assay with ALOMY, the “Herbicidal action against [%] ALOMY” value is recorded as 90%. The “Herbicidal action against [%] ABUTH” value in the assay on ABUTH turned out to be 80%. Further, the “Herbicidal action against [%] AVEFA” value in the assay on AVEFA was determined as 90%. In addition, the “Herbicidal action against [%] POLCO” value in the assay on POLCO amounted to 80%. Also, in the assay on STEME, the “Herbicidal action against [%] STEME” value came out at 90%. In the assay with SETVI, the “Herbicidal action against [%] SETVI” value worked out at 80%. The “Herbicidal action against [%] AMARE” value with AMARE is listed as 80%. Further, the “Herbicidal action against [%] VERPE” value in the assay on VERPE was 80%. Also, in the assay with ECHCG, the “Herbicidal action against [%] ECHCG” value is 90%. In addition, the “Herbicidal action against [%] LOLRI” value in the assay with LOLRI turned out to be 90%. Further, the “Herbicidal action against [%] HORMU” value with HORMU is 90%.

With `C=CC1(C(=O)NC2C=CC(C(=O)NC(C)(C)C(F)(F)F)C2)CC(c2cc(F)cc(F)c2)=NO1` (single isomer, unassigned) [II-24], the “Herbicidal action against [%] PHBPU” value in the assay on PHBPU is on record as 80%. For the same compound, the “Herbicidal action against [%] VERPE” value in the assay on VERPE came out at 80%.

With `C=CC1(C(=O)NC2CC=C(C(=O)NS(N)(=O)=O)C2)CC(c2cc(F)cc(F)c2)=NO1` (mixture of isomers) [IV-10], in the assay with AVEFA, the “Herbicidal action against [%] AVEFA” value was determined as 90%. Further, the “Herbicidal action against [%] PHBPU” value in the assay with PHBPU is 90%. Besides, the “Herbicidal action against [%] AMARE” value with AMARE turned out to be 80%. Besides, the “Herbicidal action against [%] ECHCG” value in the assay with ECHCG came to 90%. The “Herbicidal action against [%] LOLRI” value in the assay with LOLRI amounted to 90%. Besides, the “Herbicidal action against [%] HORMU” value with HORMU is recorded as 90%.

In the case of `O=C(C1C=CC(NC(=O)C2(C(F)(F)F)CC(c3cc(F)cc(F)c3)=NO2)C1)N1CCCO1` (mixture of isomers) [II-32], the “Herbicidal action against [%] ALOMY” value in the assay with ALOMY was found to be 90%. The “Herbicidal action against [%] ABUTH” value in the assay on ABUTH worked out at 80%. In the assay on AVEFA, the “Herbicidal action against [%] AVEFA” value turned out to be 90%. For the same compound, in the assay on POLCO, the “Herbicidal action against [%] POLCO” value is 90%. The “Herbicidal action against [%] STEME” value with STEME was determined as 90%. For the same compound, in the assay with SETVI, the “Herbicidal action against [%] SETVI” value worked out at 80%. In addition, in the assay with AMARE, the “Herbicidal action against [%] AMARE” value worked out at 80%. Also, in the assay with VERPE, the “Herbicidal action against [%] VERPE” value is listed as 80%. In the assay on ECHCG, the “Herbicidal action against [%] ECHCG” value is 90%. Also, in the assay with LOLRI, the “Herbicidal action against [%] LOLRI” value is on record as 90%. For the same compound, the “Herbicidal action against [%] HORMU” value in the assay with HORMU is 90%.

Take `CC1(C(=O)NC2C=CC(C(=O)OCCCl)C2)CC(c2cccc(C#N)c2)=NO1` (mixture of isomers) [Example I-079]: in the assay with ALOMY, the “Herbicidal action against [%] ALOMY” value was 90%. Moreover, the “Herbicidal action against [%] ABUTH” value in the assay on ABUTH was found to be 80%. Also, the “Herbicidal action against [%] AVEFA” value in the assay on AVEFA was determined as 90%. Moreover, the “Herbicidal action against [%] POLCO” value in the assay on POLCO is reported as 90%. In the assay with STEME, the “Herbicidal action against [%] STEME” value turned out to be 80%. Further, the “Herbicidal action against [%] SETVI” value in the assay on SETVI is reported as 90%. Also, the “Herbicidal action against [%] AMARE” value with AMARE was 90%. Moreover, the “Herbicidal action against [%] VERPE” value in the assay on VERPE is 90%. In addition, in the assay with ECHCG, the “Herbicidal action against [%] ECHCG” value was determined as 80%. In the assay with HORMU, the “Herbicidal action against [%] HORMU” value was found to be 100%.
